Experimental data taken from ChEMBL document CHEMBL1154111, “Potent, orally bioavailable, liver-selective stearoyl-CoA desaturase (SCD) inhibitors” (Bioorg Med Chem Lett, 2009).
pIC50: −log10 of the molar value.

What was measured:
Acyl-CoA desaturase 1 = biological target: T1, Acyl-CoA desaturase 1 (Rattus norvegicus, UniProt P07308); assay: Inhibition of stearoyl-CoA delta9 desaturase in rat microsome
T1 sequence (P07308 whole entry): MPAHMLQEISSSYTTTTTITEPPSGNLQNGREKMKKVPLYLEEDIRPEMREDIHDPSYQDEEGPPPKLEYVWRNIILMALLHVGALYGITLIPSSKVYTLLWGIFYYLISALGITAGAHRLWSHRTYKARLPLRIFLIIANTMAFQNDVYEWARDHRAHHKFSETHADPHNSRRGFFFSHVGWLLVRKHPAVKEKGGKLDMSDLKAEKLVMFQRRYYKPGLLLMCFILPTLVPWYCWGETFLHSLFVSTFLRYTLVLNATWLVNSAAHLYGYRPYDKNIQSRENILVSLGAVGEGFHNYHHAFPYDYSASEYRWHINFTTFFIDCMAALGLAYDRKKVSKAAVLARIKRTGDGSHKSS

Rattus norvegicus [1] = assay: Dose normalized AUC in Sprague-Dawley rat at 1 mg/kg, po; format: ADME, organism-based; set-up: dose 1 mg/kg, route oral; conditions: in vivo
[2] = Cmax in Sprague-Dawley rat at 1.5 mg/kg, po; format: ADME, organism-based; set-up: dose 1.5 mg/kg, route oral; conditions: in vivo
[3] = Terminal volume of distribution in Sprague-Dawley rat at 1.5 mg/kg, po and 1 mg/kg, iv; format: ADME, organism-based; conditions: in vivo, read-out: Vbeta
Stearoyl-CoA desaturase = biological target: T2, Stearoyl-CoA desaturase (Homo sapiens, UniProt O00767); assay: Inhibition of stearoyl-CoA delta9 desaturase in human HepG2 cells; format: cell-based
T2 sequence (O00767 whole entry): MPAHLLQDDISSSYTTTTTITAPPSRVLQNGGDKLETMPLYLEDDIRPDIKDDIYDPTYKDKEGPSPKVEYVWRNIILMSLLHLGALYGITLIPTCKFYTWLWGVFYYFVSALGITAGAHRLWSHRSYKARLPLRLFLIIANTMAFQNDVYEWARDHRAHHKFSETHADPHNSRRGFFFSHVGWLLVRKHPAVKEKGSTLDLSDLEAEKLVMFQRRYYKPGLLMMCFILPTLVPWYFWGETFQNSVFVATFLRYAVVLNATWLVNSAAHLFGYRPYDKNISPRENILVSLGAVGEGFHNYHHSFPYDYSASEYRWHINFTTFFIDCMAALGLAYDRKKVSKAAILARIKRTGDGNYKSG

[4] = Metabolic stability in human liver microsome after 30 mins; format: ADME; conditions: liver microsomes, read-out: Stability
[5] = Metabolic stability in Sprague-Dawley rat liver microsome after 30 mins; format: ADME; conditions: liver microsomes, read-out: Stability
[6] = Oral bioavailability in Sprague-Dawley rat at 1.5 mg/kg; format: ADME, organism-based; conditions: in vivo
[7] = Plasma clearance in Sprague-Dawley rat plasma at 1 mg/kg, iv; format: ADME, organism-based; set-up: dose 1 mg/kg, route intravenous
[8] = Elimination half life in Sprague-Dawley rat at 1 mg/kg, iv; format: ADME, organism-based; set-up: dose 1 mg/kg, route intravenous; conditions: in vivo, read-out: beta t1/2 (converted)
[9] = Apparent permeability from apical to basolateral side of human Caco-2 cells; format: ADME, cell-based
[10] = Apparent permeability from basolateral to apical side of human Caco-2 cells; format: ADME, cell-based
[11] = biological target: Acyl-CoA (8-3)-desaturase (Rattus norvegicus, UniProt Q920R3); assay: Inhibition of stearoyl-CoA delta5 desaturase in rat microsome
Chain of Acyl-CoA (8-3)-desaturase (Q920R3 whole entry): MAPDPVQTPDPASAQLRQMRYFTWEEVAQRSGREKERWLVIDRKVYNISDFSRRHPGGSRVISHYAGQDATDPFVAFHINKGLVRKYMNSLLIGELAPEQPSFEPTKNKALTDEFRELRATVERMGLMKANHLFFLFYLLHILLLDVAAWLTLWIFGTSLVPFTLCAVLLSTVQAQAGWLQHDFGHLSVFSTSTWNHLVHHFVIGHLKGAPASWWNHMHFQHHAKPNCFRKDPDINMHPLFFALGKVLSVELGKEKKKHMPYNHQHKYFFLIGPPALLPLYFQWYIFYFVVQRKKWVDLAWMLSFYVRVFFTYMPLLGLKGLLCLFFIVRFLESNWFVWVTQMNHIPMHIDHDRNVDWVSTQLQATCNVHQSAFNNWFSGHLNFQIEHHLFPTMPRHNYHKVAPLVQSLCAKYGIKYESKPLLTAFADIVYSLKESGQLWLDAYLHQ

Acyl-CoA 6-desaturase = Acyl-CoA 6-desaturase (Rattus norvegicus, UniProt Q9Z122); assay: Inhibition of stearoyl-CoA delta6 desaturase in rat microsome
Chain of Acyl-CoA 6-desaturase (Q9Z122 whole entry): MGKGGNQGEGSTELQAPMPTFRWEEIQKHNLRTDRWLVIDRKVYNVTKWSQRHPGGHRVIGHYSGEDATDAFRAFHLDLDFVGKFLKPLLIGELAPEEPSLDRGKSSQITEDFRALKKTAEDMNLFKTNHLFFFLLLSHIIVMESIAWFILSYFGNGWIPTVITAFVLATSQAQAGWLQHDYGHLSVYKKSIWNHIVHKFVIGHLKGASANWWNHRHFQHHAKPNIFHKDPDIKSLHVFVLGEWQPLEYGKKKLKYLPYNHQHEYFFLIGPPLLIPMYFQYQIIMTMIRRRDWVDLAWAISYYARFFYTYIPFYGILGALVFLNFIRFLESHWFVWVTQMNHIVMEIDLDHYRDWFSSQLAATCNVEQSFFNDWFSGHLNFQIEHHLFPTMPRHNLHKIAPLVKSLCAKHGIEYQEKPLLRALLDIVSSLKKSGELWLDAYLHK

Rattus norvegicus [12] = assay: Inhibition of stearoyl-CoA delta9 desaturase in high-carbohydrate diet-fed Sprague-Dawley rat dosed orally BID for 5 days assessed as reduction in liver palmitoleic and vaccenic acid level; format: functional, organism-based
Rattus norvegicus [13] = assay: Inhibition of stearoyl-CoA delta9 desaturase in high-carbohydrate diet-fed Sprague-Dawley rat dosed orally BID for 5 days assessed as reduction in plasma palmitoleic and vaccenic acid level; format: functional, organism-based
Rattus norvegicus [14] = assay: Reduction in liver triglyceride level in high-carbohydrate diet-fed Sprague-Dawley rat at 20 mg/kg, po, BID after 5 days measured after 4 hrs of last dose relative to control; format: functional; set-up: scale not given: the % may be the effect or the level left

| Structure (SMILES) | pIC50 (Acyl-CoA desaturase 1) | pIC50 (Stearoyl-CoA desaturase) | remaining at 0.5 h [4] [%] | remaining at 0.5 h [5] [%] | further results |
| --- | --- | --- | --- | --- | --- |
| COc1ccc(-c2nc3ccc(NCc4ccc(Cl)c(C(F)(F)F)c4)cc3n(CCNC(C)=O)c2=O)cc1 | 9.22 | – | – | – | – |
| O=C(CO)Nc1ccc2ncn(Cc3ccc(Cl)c(C(F)(F)F)c3)c(=O)c2c1 | – | – | – | – | AUC (Rattus norvegicus [1]): 451 ng·h/mL; Cmax [2]: 439 ng/mL; Vd [3]: 1.46 L/kg |
| Cc1nc2ccc(NCc3cccc(C(F)(F)F)c3)cc2n(CCNC(N)=O)c1=O | 7.82 | < 6.00 | – | – | – |
| Cc1nc2ccc(NCc3cccc(C(F)(F)F)c3)cc2n(CCNC(=O)[C@H](C)O)c1=O | 5.10 | – | – | – | – |
| CC(C)c1nc2ccc(NCc3cccc(C(F)(F)F)c3)cc2n(CCNC(=O)CO)c1=O | 5.55 | – | – | – | – |
| CC(=O)NCCn1c(=O)c(C)nc2ccc(NCc3cccc(C(F)(F)F)c3)cc21 | 6.79 | – | – | – | – |
| O=C(CO)NCCn1c(=O)c(C(F)(F)F)nc2ccc(NCc3cccc(C(F)(F)F)c3)cc21 | 8.72 | 8.57 | 19 | 77 | – |
| COc1ccc(-c2nc3ccc(NCc4cccc(C(F)(F)F)c4)cc3n(CCNC(C)=O)c2=O)cc1 | 7.03 | 7.48 | – | – | – |
| Cc1nc2ccc(NCc3cccc(C(F)(F)F)c3)cc2n(CCNC(=O)[C@@H](C)O)c1=O | 5.41 | – | – | – | – |
| Cc1nc2ccc(NCc3cccc(C(F)(F)F)c3)cc2n(CCNC(=O)CCO)c1=O | 5.96 | – | – | – | – |
| COc1ccc(-c2nc3ccc(NCc4ccc(Cl)c(Cl)c4)cc3n(CCNC(C)=O)c2=O)cc1 | 6.96 | – | 83 | 54 | AUC (Rattus norvegicus [1]): 0 ng·h/mL |
| CC1Oc2ccc(NCc3ccc(Cl)c(Cl)c3)cc2N(CCNC(=O)CO)C1=O (racemic) | 7.10 | – | 2.3 | 1.5 | – |
| O=C(CO)NCCN1C(=O)COc2ccc(NCc3ccc(Cl)c(Cl)c3)cc21 | – | 9.30 | 32 | 14 | AUC (Rattus norvegicus [1]): 122 ng·h/mL; Cmax [2]: 427 ng/mL; bioavailability [6]: 39%; clearance [7]: 53 mL/min/kg; Vd [3]: 4.89 L/kg; half-life [8]: 1.07 h |
| Cc1nc2ccc(NCc3cccc(C(F)(F)F)c3)cc2n(CCNC(=O)CO)c1=O | 7.42 | – | 56 | 54 | AUC (Rattus norvegicus [1]): 148 ng·h/mL; Cmax [2]: 374 ng/mL; bioavailability [6]: 78%; clearance [7]: 88.1 mL/min/kg; Vd [3]: 7.22 L/kg; half-life [8]: 0.95 h; Papp A→B [9]: 6.8 ×10⁻⁶ cm/s; Papp B→A [10]: 48.2 ×10⁻⁶ cm/s; pIC50 [11]: < 4.52; pIC50 (Acyl-CoA 6-desaturase): < 4.52; Activity (Rattus norvegicus [12]): Dose-dependent effect; Activity (Rattus norvegicus [13]): Dose-dependent effect; Activity (Rattus norvegicus [14]): 50% |
| CC1(C)Oc2ccc(NCc3ccc(Cl)c(Cl)c3)cc2N(CCNC(=O)CO)C1=O | 7.92 | – | 3.1 | 9.6 | – |
| Cc1nc2ccc(NCc3cccc(C(F)(F)F)c3)cc2n(CCNC(=O)C(O)CO)c1=O (racemic) | 6.57 | 7.17 | – | – | – |
| O=C(CO)Nc1ccc2ncn(Cc3ccc(Cl)c(Cl)c3)c(=O)c2c1 | – | 6.92 | – | – | AUC (Rattus norvegicus [1]): 935 ng·h/mL; Cmax [2]: 360 ng/mL; Vd [3]: 2.06 L/kg |
| CC(C)(C)c1nc2ccc(NCc3cccc(C(F)(F)F)c3)cc2n(CCNC(=O)CO)c1=O | < 5.52 | – | – | – | – |
